According to a compilation of properties of binary mixtures (doi:10.1021/acs.jced.9b01103):

Assay: xn = mol fraction of the nth substance listed
Settings: 96.7 kPa

CS(C)=O + CC(=O)[O-].CCCC[n+]1ccn(C)c1
x2 = 0
Settings	viscosity [mPa·s]
303.15 K	1.8
308.15 K	1.665
313.15 K	1.529
318.15 K	1.407
323.15 K	1.304
328.15 K	1.211
333.15 K	1.127
343.15 K	0.989
348.15 K	0.931

CC(=O)[O-].CCCC[n+]1ccn(C)c1 + CS(C)=O
viscosity [mPa·s]
Settings	303.15 K	308.15 K	313.15 K	318.15 K	323.15 K	328.15 K	333.15 K	338.15 K	343.15 K	348.15 K
x1 = 0.21	6.44	–	4.98	–	3.81	3.39	3.08	2.77	–	2.3
x1 = 0.285	9.15	7.85	6.63	5.91	–	–	–	3.69	3.3	3.01
x1 = 0.369	13.34	11.31	9.67	8.25	7.12	6.3	5.48	4.89	–	3.97
x1 = 0.478	22.7	18	14.83	12.54	10.64	9.15	7.97	6.92	6.06	5.44
x1 = 0.606	51.5	39.2	30.3	–	19.2	–	12.9	10.5	8.81	7.34
x1 = 0.789	98.8	74.1	56.1	42.7	33.2	26.7	21.7	–	15.07	12.69
x1 = 0.884	131.1	96.5	75.2	–	47.5	39	32.8	28.1	–	–
x1 = 1	253	180.6	133.1	102	79.4	62.1	50.2	40.7	–	28.4
